BindingDB's records for patent US12404295 (Idorsia Pharmaceuticals, 2025)

Target: Galectin-3 (Homo sapiens, UniProt P17931)
Assay: Competitive Binding Assay
Procedure: The inhibitory activity of compounds is determined in competitive binding assays. This spectrophotometric assay measures the binding of biotinylated human Gal-3 (hGal-3) or human Gal-1 (hGal-1), respectively, to a microplate-adsorbed glycoprotein, asialofetuin (ASF).Briefly, compounds are serially diluted in DMSO (working dilutions). […] Finally, 25 μL/well of ABTS substrate is added.

Sequence of Galectin-3 (P17931 whole entry): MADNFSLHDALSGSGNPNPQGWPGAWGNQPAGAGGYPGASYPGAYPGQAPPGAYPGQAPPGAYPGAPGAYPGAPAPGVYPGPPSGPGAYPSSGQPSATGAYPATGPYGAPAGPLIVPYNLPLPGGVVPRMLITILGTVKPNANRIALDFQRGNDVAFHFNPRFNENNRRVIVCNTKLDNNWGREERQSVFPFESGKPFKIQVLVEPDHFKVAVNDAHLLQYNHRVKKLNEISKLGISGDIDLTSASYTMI

IC50	SMILES
160 nM	CO[C@@H]1[C@@H](n2cc(-c3cc(F)c(F)c(F)c3)nn2)[C@@H](O)[C@@H](CO)O[C@H]1SC(c1ncccc1C)C1(O)CCOC(C)(C)C1 (stereo partly specified) [US12404295, Example 2.43.126.I.]
930 nM	OC[C@H]1O[C@@H](S[C@@H](c2ccccc2C2CC2)C2(O)CCC(F)(F)CC2)[C@H](O)[C@@H](n2cc(-c3cc(F)c(F)c(F)c3)nn2)[C@H]1O [US12404295, Example 2.44.106S.*]
130 nM	Cc1ccccc1[C@@H](S[C@@H]1O[C@H](CO)[C@H](O)[C@H](n2cc(-c3cc(F)c(F)c(F)c3)nn2)[C@H]1O)[C@]1(O)CCOC(C)(C)C1 [US12404295, Example 2.43.112RS.]
4900 nM	Cc1ccccc1[C@H](S[C@@H]1O[C@H](CO)[C@H](O)[C@H](n2cc(-c3cc(F)c(F)c(F)c3)nn2)[C@H]1O)[C@@]1(O)CCOC(C)(C)C1 [US12404295, Example 2.43.112SR.]
110 nM	CC(C)Cc1c(C(S[C@@H]2O[C@H](CO)[C@H](O)[C@H](n3cc(-c4cc(F)c(F)c(F)c4)nn3)[C@H]2O)C2(O)CCC(F)(F)CC2)noc1C1CC1 (stereo partly specified) [US12404295, Example 2.44.131.]
7300 nM	Cc1ccccc1[C@H](S[C@@H]1O[C@H](CO)[C@H](O)[C@H](n2cc(-c3cc(F)c(F)c(F)c3)nn2)[C@H]1O)[C@]1(O)CCOC(C)(C)C1 [US12404295, Example 2.43.112SS.]
1500 nM	Cc1ccccc1[C@@H](S[C@@H]1O[C@H](CO)[C@H](O)[C@H](n2cc(-c3cc(F)c(F)c(F)c3)nn2)[C@H]1O)[C@@]1(O)CCOC(C)(C)C1 [US12404295, Example 2.43.112RR.]
57500 nM	OC[C@H]1O[C@@H](S[C@@H](c2cccc(Cl)c2Cl)C2(O)CCC(F)(F)CC2)[C@H](O)[C@@H](n2cc(-c3cc(F)c(F)c(F)c3)nn2)[C@H]1O [US12404295, Example 2.44.113S.]
90 nM	CC1(C)CC(O)([C@H](S[C@@H]2O[C@H](CO)[C@H](O)[C@H](n3cc(-c4cc(F)c(F)c(F)c4)nn3)[C@H]2O)c2ccccc2C(F)(F)F)CC(C)(C)O1 [US12404295, Example 2.42.102R.]
800 nM	OC[C@H]1O[C@@H](S[C@H](c2cccc(Cl)c2Cl)C2(O)CCC(F)(F)CC2)[C@H](O)[C@@H](n2cc(-c3cc(F)c(F)c(F)c3)nn2)[C@H]1O [US12404295, Example 2.44.113R.]
3900 nM	CC1(C)C[C@@](O)([C@@H](S[C@@H]2O[C@H](CO)[C@H](O)[C@H](n3cc(-c4cc(F)c(F)c(F)c4)nn3)[C@H]2O)c2ccccc2C(F)(F)F)CCO1 [US12404295, Example 2.43.102SR.]
100 nM	OC[C@H]1O[C@@H](S[C@H](c2ncccc2C(F)(F)F)C2(O)CC(F)(F)C2)[C@H](O)[C@@H](n2cc(-c3cc(F)c(F)c(F)c3)nn2)[C@H]1O [US12404295, Example 2.35.125R.]
360 nM	OC[C@H]1O[C@@H](SC(c2cccc(Cl)c2Cl)C2(O)CCC(F)(F)CC2)[C@H](O)[C@@H](n2cc(-c3cc(F)c(F)c(F)c3)nn2)[C@H]1O (stereo partly specified) [US12404295, Example 2.44.113.]
550 nM	Cc1nc(C(S[C@@H]2O[C@H](CO)[C@H](O)[C@H](n3cc(-c4cc(F)c(F)c(F)c4)nn3)[C@H]2O)C(C)(C)O)c(C)s1 (stereo partly specified) [US12404295, Example 2.31.123.]
4700 nM	Cc1nc([C@H](S[C@@H]2O[C@H](CO)[C@H](O)[C@H](n3cc(-c4cc(F)c(F)c(F)c4)nn3)[C@H]2O)C(C)(C)O)c(C)s1 [US12404295, Example 2.31.123S.]
60 nM	OC[C@H]1O[C@@H](S[C@H](c2ccccc2C2CC2)C2(O)CCC(F)(F)CC2)[C@H](O)[C@@H](n2cc(-c3cc(F)c(F)c(F)c3)nn2)[C@H]1O [US12404295, Example 2.44.106R.*]
290 nM	CC1(C)C[C@@](O)([C@H](S[C@@H]2O[C@H](CO)[C@H](O)[C@H](n3cc(-c4cc(F)c(F)c(F)c4)nn3)[C@H]2O)c2ccccc2C(F)(F)F)CCO1 [US12404295, Example 2.43.102RR.]
320 nM	OC[C@H]1O[C@@H](SC(c2ncccc2C(F)(F)F)C2(O)CC(F)(F)C2)[C@H](O)[C@@H](n2cc(-c3cc(F)c(F)c(F)c3)nn2)[C@H]1O (stereo partly specified) [US12404295, Example 2.35.125.]
40 nM	CO[C@@H]1[C@@H](n2cc(-c3cc(F)c(F)c(F)c3)nn2)[C@@H](O)[C@@H](CO)O[C@H]1S[C@H](c1ncccc1C)[C@]1(O)CCOC(C)(C)C1 [US12404295, Example 2.43.126RS.I.]
120 nM	CC1(C)CC(O)(C(S[C@@H]2O[C@H](CO)[C@H](O)[C@H](n3cc(-c4cc(F)c(F)c(F)c4)nn3)[C@H]2O)c2ccccc2C(F)(F)F)CCO1 (stereo partly specified) [US12404295, Example 2.43.102.]
3000 nM	OC[C@H]1O[C@@H](S[C@@H](c2ncccc2C(F)(F)F)C2(O)CC(F)(F)C2)[C@H](O)[C@@H](n2cc(-c3cc(F)c(F)c(F)c3)nn2)[C@H]1O [US12404295, Example 2.35.125S.]
3920 nM	CC1(C)C[C@](O)([C@@H](S[C@@H]2O[C@H](CO)[C@H](O)[C@H](n3cc(-c4cc(F)c(F)c(F)c4)nn3)[C@H]2O)c2ccccc2C(F)(F)F)CCO1 [US12404295, Example 2.43.102SS.]
40 nM	CC1(C)C[C@](O)([C@H](S[C@@H]2O[C@H](CO)[C@H](O)[C@H](n3cc(-c4cc(F)c(F)c(F)c4)nn3)[C@H]2O)c2ccccc2C(F)(F)F)CCO1 [US12404295, Example 2.43.102RS.]
380 nM	CC1(C)CC(O)(C(S[C@@H]2O[C@H](CO)[C@H](O)[C@H](n3cc(-c4cc(F)c(F)c(F)c4)nn3)[C@H]2O)c2ccccc2C(F)(F)F)CC(C)(C)O1 (stereo partly specified) [US12404295, Example 2.42.102.]
7820 nM	CC1(C)CC(O)([C@@H](S[C@@H]2O[C@H](CO)[C@H](O)[C@H](n3cc(-c4cc(F)c(F)c(F)c4)nn3)[C@H]2O)c2ccccc2C(F)(F)F)CC(C)(C)O1 [US12404295, Example 2.42.102S.]
280 nM	Cc1nc([C@@H](S[C@@H]2O[C@H](CO)[C@H](O)[C@H](n3cc(-c4cc(F)c(F)c(F)c4)nn3)[C@H]2O)C(C)(C)O)c(C)s1 [US12404295, Example 2.31.123R.]
